{
  "source": "patent US20250230193A1",
  "about": "“CYCLIC COMPOUND HAVING SELECTIVE KRAS INHIBITORY EFFECT ON HRAS AND NRAS” (CHUGAI SEIYAKU KABUSHIKI KAISHA, priority 2022, published 2025)",
  "key": {"[1]": {"target": "GDP-bound NRAS wild-type protein (Homo sapiens, UniProt P01111)", "sequence (P01111 whole entry)": "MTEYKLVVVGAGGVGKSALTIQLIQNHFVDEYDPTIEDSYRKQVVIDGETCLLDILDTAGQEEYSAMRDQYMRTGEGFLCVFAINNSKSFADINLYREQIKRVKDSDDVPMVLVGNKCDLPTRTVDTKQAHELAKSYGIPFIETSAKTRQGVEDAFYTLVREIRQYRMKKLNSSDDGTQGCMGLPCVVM", "test": "Binding to NRAS by surface plasmon resonance (SPR), Single Cycle Kinetics", "conditions": "KD ratio NRAS/KRAS, SPR"}, "[2]": {"target": "GDP-bound HRAS wild-type protein (Homo sapiens, UniProt P01112)", "sequence (P01112 whole entry)": "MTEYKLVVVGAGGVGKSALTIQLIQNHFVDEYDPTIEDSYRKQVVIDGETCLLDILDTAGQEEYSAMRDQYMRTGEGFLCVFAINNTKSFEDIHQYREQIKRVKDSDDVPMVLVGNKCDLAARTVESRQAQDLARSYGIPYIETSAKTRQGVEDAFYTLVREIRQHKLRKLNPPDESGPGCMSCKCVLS", "test": "Binding to HRAS by surface plasmon resonance (SPR), Single Cycle Kinetics", "conditions": "KD ratio HRAS/KRAS, SPR"}},
  "note": "Where a SMILES comes first, the peptide text is derived from it. Bridges are numbered along the chain shown (N, C = ends). [ ]: non-standard residue; d: D form. The star is where a group is joined. hPhe(3-Cl-4-CF3) = N[C@@H](CCc1ccc(C(F)(F)F)c(Cl)c1)C(=O)O; NPrPhe(4-CF3) = CCCN[C@@H](Cc1ccc(C(F)(F)F)cc1)C(=O)O; NMeGly(cPent) = CN[C@H](C(=O)O)C1CCCC1; Pro(4,4-Me2) = CC1(C)CN[C@H](C(=O)O)C1; Pro(4S-Me) = C[C@@H]1CN[C@H](C(=O)O)C1; NMeD = CN[C@@H](CC(=O)O)C(=O)O; NMeL = CN[C@@H](CC(C)C)C(=O)O; Morpholide = C1CN(*)CCO1; NMeA = CN[C@@H](C)C(=O)O; Ac5c = NC1(C(=O)O)CCCC1; Aze = O=C(O)[C@@H]1CCN1; NEtG = CCNCC(=O)O; Sar = CNCC(=O)O",
  "data": [
    {"smiles": "CCCN1C(=O)CN(C)C(=O)CNC(=O)[C@H]([C@@H](C)CC)NC(=O)[C@H](CC(C)C)N(C)C(=O)C[C@@H](C(=O)N2CCOCC2)N(C)C(=O)[C@H](C2CCCC2)N(C)C(=O)C2(CCCC2)NC(=O)[C@@H]2C[C@H](C)CN2C(=O)[C@H](CCc2ccc(C(F)(F)F)c(Cl)c2)NC(=O)CN(C)C(=O)[C@@H]1Cc1ccc(C(F)(F)F)cc1", "note": "[PP0449] ([NMeL]IG[Sar][NPrPhe(4-CF3)][Sar][hPhe(3-Cl-4-CF3)][Pro(4S-Me)][Ac5c][NMeGly(cPent)][NMeD]-Morpholide; lactam N-11)", "values": [
      {"measurement": "NRAS/KRAS (ratio of KD value with respect to GDP-bound NRAS wild-type protein to KD value with respect to KRAS)", "setting": "[1]", "value": "C (A compound having a KD ratio of 0.1 or more and less than 3 is denoted as C)"},
      {"measurement": "HRAS/KRAS (ratio of KD value with respect to GDP-bound HRAS wild-type protein to KD value with respect to KRAS)", "setting": "[2]", "value": "C (A compound having a KD ratio of 0.1 or more and less than 3 is denoted as C)"}
    ]},
    {"smiles": "CCCN1C(=O)CN(C)C(=O)CN(CC)C(=O)[C@H]([C@@H](C)CC)NC(=O)[C@H](CC(C)C)N(C)C(=O)C[C@@H](C(=O)N2CCOCC2)N(C)C(=O)[C@H](C2CCCC2)N(C)C(=O)C2(CCCC2)NC(=O)[C@@H]2CC(C)(C)CN2C(=O)[C@H](CCc2ccc(C(F)(F)F)c(Cl)c2)NC(=O)CN(C)C(=O)[C@@H]1Cc1ccc(C(F)(F)F)cc1", "note": "[PP0450] ([NMeL]I[NEtG][Sar][NPrPhe(4-CF3)][Sar][hPhe(3-Cl-4-CF3)][Pro(4,4-Me2)][Ac5c][NMeGly(cPent)][NMeD]-Morpholide; lactam N-11)", "values": [
      {"measurement": "NRAS/KRAS (ratio of KD value with respect to GDP-bound NRAS wild-type protein to KD value with respect to KRAS)", "setting": "[1]", "value": "B (a compound having 3 or more and less than 10 is denoted as B)"},
      {"measurement": "HRAS/KRAS (ratio of KD value with respect to GDP-bound HRAS wild-type protein to KD value with respect to KRAS)", "setting": "[2]", "value": "C (A compound having a KD ratio of 0.1 or more and less than 3 is denoted as C)"}
    ]},
    {"smiles": "CCCN1C(=O)CN(C)C(=O)[C@@H]2CCN2C(=O)[C@H]([C@@H](C)CC)NC(=O)[C@H](CC(C)C)N(C)C(=O)C[C@@H](C(=O)N2CCOCC2)N(C)C(=O)[C@H](C2CCCC2)N(C)C(=O)C2(CCCC2)NC(=O)[C@@H]2CC(C)(C)CN2C(=O)[C@H](CCc2ccc(C(F)(F)F)c(Cl)c2)NC(=O)CN(C)C(=O)[C@@H]1Cc1ccc(C(F)(F)F)cc1", "note": "[PP0452] ([NMeL]I[Aze][Sar][NPrPhe(4-CF3)][Sar][hPhe(3-Cl-4-CF3)][Pro(4,4-Me2)][Ac5c][NMeGly(cPent)][NMeD]-Morpholide; lactam N-11)", "values": [
      {"measurement": "NRAS/KRAS (ratio of KD value with respect to GDP-bound NRAS wild-type protein to KD value with respect to KRAS)", "setting": "[1]", "value": "B (a compound having 3 or more and less than 10 is denoted as B)"},
      {"measurement": "HRAS/KRAS (ratio of KD value with respect to GDP-bound HRAS wild-type protein to KD value with respect to KRAS)", "setting": "[2]", "value": "B (a compound having 3 or more and less than 10 is denoted as B)"}
    ]},
    {"smiles": "CCCN1C(=O)CN(C)C(=O)[C@@H]2CCN2C(=O)[C@H]([C@@H](C)CC)NC(=O)[C@H](CC(C)C)N(C)C(=O)C[C@@H](C(=O)N2CCOCC2)N(C)C(=O)[C@H](C2CCCC2)N(C)C(=O)C2(CCCC2)NC(=O)[C@@H]2C[C@H](C)CN2C(=O)[C@H](CCc2ccc(C(F)(F)F)c(Cl)c2)NC(=O)CN(C)C(=O)[C@@H]1Cc1ccc(C(F)(F)F)cc1", "note": "[PP0453] ([NMeL]I[Aze][Sar][NPrPhe(4-CF3)][Sar][hPhe(3-Cl-4-CF3)][Pro(4S-Me)][Ac5c][NMeGly(cPent)][NMeD]-Morpholide; lactam N-11)", "values": [
      {"measurement": "NRAS/KRAS (ratio of KD value with respect to GDP-bound NRAS wild-type protein to KD value with respect to KRAS)", "setting": "[1]", "value": "B (a compound having 3 or more and less than 10 is denoted as B)"},
      {"measurement": "HRAS/KRAS (ratio of KD value with respect to GDP-bound HRAS wild-type protein to KD value with respect to KRAS)", "setting": "[2]", "value": "C (A compound having a KD ratio of 0.1 or more and less than 3 is denoted as C)"}
    ]},
    {"smiles": "CCCN1C(=O)[C@@H]2CCN2C(=O)[C@H](C)N(C)C(=O)[C@H]([C@@H](C)CC)NC(=O)[C@H](CC(C)C)N(C)C(=O)C[C@@H](C(=O)N2CCOCC2)N(C)C(=O)[C@H](C2CCCC2)N(C)C(=O)C2(CCCC2)NC(=O)[C@@H]2CC(C)(C)CN2C(=O)[C@H](CCc2ccc(C(F)(F)F)c(Cl)c2)NC(=O)CN(C)C(=O)[C@@H]1Cc1ccc(C(F)(F)F)cc1", "note": "[PP0454] ([NMeL]I[NMeA][Aze][NPrPhe(4-CF3)][Sar][hPhe(3-Cl-4-CF3)][Pro(4,4-Me2)][Ac5c][NMeGly(cPent)][NMeD]-Morpholide; lactam N-11)", "values": [
      {"measurement": "NRAS/KRAS (ratio of KD value with respect to GDP-bound NRAS wild-type protein to KD value with respect to KRAS)", "setting": "[1]", "value": "C (A compound having a KD ratio of 0.1 or more and less than 3 is denoted as C)"},
      {"measurement": "HRAS/KRAS (ratio of KD value with respect to GDP-bound HRAS wild-type protein to KD value with respect to KRAS)", "setting": "[2]", "value": "C (A compound having a KD ratio of 0.1 or more and less than 3 is denoted as C)"}
    ]},
    {"smiles": "CCCN1C(=O)[C@@H]2CCN2C(=O)CN(C)C(=O)[C@H]([C@@H](C)CC)NC(=O)[C@H](CC(C)C)N(C)C(=O)C[C@@H](C(=O)N2CCOCC2)N(C)C(=O)[C@H](C2CCCC2)N(C)C(=O)C2(CCCC2)NC(=O)[C@@H]2CC(C)(C)CN2C(=O)[C@H](CCc2ccc(C(F)(F)F)c(Cl)c2)NC(=O)CN(C)C(=O)[C@@H]1Cc1ccc(C(F)(F)F)cc1", "note": "[PP0456] ([NMeL]I[Sar][Aze][NPrPhe(4-CF3)][Sar][hPhe(3-Cl-4-CF3)][Pro(4,4-Me2)][Ac5c][NMeGly(cPent)][NMeD]-Morpholide; lactam N-11)", "values": [
      {"measurement": "NRAS/KRAS (ratio of KD value with respect to GDP-bound NRAS wild-type protein to KD value with respect to KRAS)", "setting": "[1]", "value": "C (A compound having a KD ratio of 0.1 or more and less than 3 is denoted as C)"},
      {"measurement": "HRAS/KRAS (ratio of KD value with respect to GDP-bound HRAS wild-type protein to KD value with respect to KRAS)", "setting": "[2]", "value": "C (A compound having a KD ratio of 0.1 or more and less than 3 is denoted as C)"}
    ]},
    {"smiles": "CCCN1C(=O)[C@@H]2CCN2C(=O)CN(C)C(=O)[C@H]([C@@H](C)CC)NC(=O)[C@H](CC(C)C)N(C)C(=O)C[C@@H](C(=O)N2CCOCC2)N(C)C(=O)[C@H](C2CCCC2)N(C)C(=O)C2(CCCC2)NC(=O)[C@@H]2C[C@H](C)CN2C(=O)[C@H](CCc2ccc(C(F)(F)F)c(Cl)c2)NC(=O)CN(C)C(=O)[C@@H]1Cc1ccc(C(F)(F)F)cc1", "note": "[PP0457] ([NMeL]I[Sar][Aze][NPrPhe(4-CF3)][Sar][hPhe(3-Cl-4-CF3)][Pro(4S-Me)][Ac5c][NMeGly(cPent)][NMeD]-Morpholide; lactam N-11)", "values": [
      {"measurement": "NRAS/KRAS (ratio of KD value with respect to GDP-bound NRAS wild-type protein to KD value with respect to KRAS)", "setting": "[1]", "value": "C (A compound having a KD ratio of 0.1 or more and less than 3 is denoted as C)"},
      {"measurement": "HRAS/KRAS (ratio of KD value with respect to GDP-bound HRAS wild-type protein to KD value with respect to KRAS)", "setting": "[2]", "value": "B (a compound having 3 or more and less than 10 is denoted as B)"}
    ]},
    {"smiles": "CC[C@H](C)[C@@H]1NC(=O)[C@H](CC(C)C)N(C)C(=O)C[C@@H](C(=O)N2CCOCC2)N(C)C(=O)[C@H](C2CCCC2)N(C)C(=O)C2(CCCC2)NC(=O)[C@@H]2CCCN2C(=O)[C@H](CCc2ccc(C(F)(F)F)c(Cl)c2)NC(=O)CN(C)C(=O)[C@H](Cc2ccc(C)cc2)N2CC=CC[C@@H](C2=O)N(C)C(=O)CN(C)C1=O", "note": "[PP0460]", "values": [
      {"measurement": "NRAS/KRAS (ratio of KD value with respect to GDP-bound NRAS wild-type protein to KD value with respect to KRAS)", "setting": "[1]", "value": "C (A compound having a KD ratio of 0.1 or more and less than 3 is denoted as C)"},
      {"measurement": "HRAS/KRAS (ratio of KD value with respect to GDP-bound HRAS wild-type protein to KD value with respect to KRAS)", "setting": "[2]", "value": "C (A compound having a KD ratio of 0.1 or more and less than 3 is denoted as C)"}
    ]},
    {"smiles": "CC[C@H](C)[C@@H]1NC(=O)[C@H](CC(C)C)N(C)C(=O)C[C@@H](C(=O)N2CCOCC2)N(C)C(=O)[C@H](C2CCCC2)N(C)C(=O)C2(CCCC2)NC(=O)[C@@H]2CCCN2C(=O)[C@H](CCc2ccc(C(F)(F)F)c(Cl)c2)NC(=O)CN(C)C(=O)[C@H](Cc2ccc(C)cc2)N2CC/C=C\\C[C@@H](C2=O)N(C)C(=O)CN(C)C1=O", "note": "[PP0461]", "values": [
      {"measurement": "NRAS/KRAS (ratio of KD value with respect to GDP-bound NRAS wild-type protein to KD value with respect to KRAS)", "setting": "[1]", "value": "A (a compound having 10 or more and less than 20 is denoted as A)"},
      {"measurement": "HRAS/KRAS (ratio of KD value with respect to GDP-bound HRAS wild-type protein to KD value with respect to KRAS)", "setting": "[2]", "value": "A (a compound having 10 or more and less than 20 is denoted as A)"}
    ]}
  ]
}
